The values below come from patent US20250064773A1, “TARGETING ERO1 ALPHA WITH AURONE DERIVATIVES” (West Virginia University Board of Governors on behalf of …, priority 2021, published 2025).

In one assay the test system is HCC4006. Put plainly: MTT viability assay, HCC4006. The assay is classed as cell-based. The conditions noted are these: Homo sapiens, NSCLC (adenocarcinoma), read-out: IC50 Avg ± s.d. (n = 3), HCC4006. An excerpt: (§1) Cell Lines: PC-9 cell line used was obtained from Sigma Aldrich and grown in RPMI 1640 medium with 10% fetal bovine serum and 1% penicillin/streptomycin. HCC4006, U266, MM1.s, and Beas-2B cell lines were obtained from ATCC and cultured in either RPMI 1640 or DMEM with 10% fetal bovine serum and 1% penicillin/streptomycin. All cell lines were also checked for mycoplasma every six months and subjected to short tandem repeat (STR) analysis for cell line validation. CRISPR Cas9: CRISPR Guide RNA 2 targeting ERO1α and CRISPR Guide RNA 4 were purchased from Genscript in the pLentiCRISPR V2 plasmid containing puromycin/ampicillin selection marker. Lentivirus was made from HEK 293T cells by co-transfection with GuideRNA of interest, pVSVG, and pPAX2 plasmids. […] Plate was then read on the BioTek Cytation 5 at 530/590 nm. […] Plate was then read at 570 nm. Treated wells were all compared to DMSO control wells to calculate percent growth inhibition and the IC50 was calculated using GraphPad (log(inhibitor) vs growth inhibition). […] Images were then quantified using ImageJ. […] Cells were aliquoted at 1 million cells per PCR tube in PBS and heated in Bio-Rad T100 thermal cycler at indicated temperatures (RT, 46° C., 48° C., 50° C., 52° C., 54° C., 56°, 58° C., and 60° C.) for 3 minutes and aggregation temperature was determined by western blot analysis. […]
On the technique in general: Formazan colour is commonly taken as a measure of viable cells.

The next assay relates to U266. As to the kind of experiment: MTT viability assay, U266. Format: cell-based. The conditions noted are these: Homo sapiens, U-266, Multiple Myeloma, read-out: IC50 Avg ± s.d. (n = 3), U266.
Excerpt: as §1

Assay [1] deals with normal lung epithelial cell line Beas-2B. As to the kind of experiment: MTT viability assay, Beas-2B. The assay is classed as cell-based. The note with it: Homo sapiens, Normal Lung Epithelium.
Excerpt: as §1

The next assay deals with LSD-1 (Homo sapiens, UniProt O60341). As to the kind of experiment: LSD-1 inhibitor screening assay kit (demethylase activity). Format: biochemical. The conditions noted are these: at concentrations ≤25 μM. An excerpt: T151742 was used to generate a concentration response. […] Experiments performed in triplicates and shown is the mean and standard deviation of three independent experiments.

A further assay concerns the target T1, MAO-B (Homo sapiens, UniProt P27338).
T1 sequence (P27338 1-520): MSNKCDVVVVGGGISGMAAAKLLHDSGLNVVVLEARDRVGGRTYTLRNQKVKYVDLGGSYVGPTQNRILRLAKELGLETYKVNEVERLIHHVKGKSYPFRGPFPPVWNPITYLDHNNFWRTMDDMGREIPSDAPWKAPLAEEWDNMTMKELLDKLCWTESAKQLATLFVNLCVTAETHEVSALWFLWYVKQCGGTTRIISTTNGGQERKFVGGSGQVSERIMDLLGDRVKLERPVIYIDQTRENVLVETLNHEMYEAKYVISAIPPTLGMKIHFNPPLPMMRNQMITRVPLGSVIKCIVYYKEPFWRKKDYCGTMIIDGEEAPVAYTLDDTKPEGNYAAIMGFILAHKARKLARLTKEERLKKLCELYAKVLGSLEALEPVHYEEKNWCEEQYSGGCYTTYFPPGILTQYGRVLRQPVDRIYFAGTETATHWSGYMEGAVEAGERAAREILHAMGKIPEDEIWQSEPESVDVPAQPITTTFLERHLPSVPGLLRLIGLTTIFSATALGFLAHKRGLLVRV
The note with it: cited from earlier work.

Usually IC50 stands for the concentration at which inhibition is half-maximal. Consider `CN(C)c1ccc(/C=C2\Oc3cc(O)ccc3C2=O)cc1` [Compound T151742], for which the IC50 is 18.5 ± 14.7 µM in the assay on HCC4006, 8.93 ± 1.13 µM in the assay with U266 and over 100 µM in assay [1]. Moreover, the “inhibition of LSD-1 demethylase activity” value on LSD-1 is given as “did not inhibit”. Besides, the “inhibition of / activity against MAO-B” value on MAO-B is reported as “showed activity”.
